In paper PMC7377239, “Cardiovascular Effects of Polychlorinated Biphenyls and Their Major Metabolites” (Environmental Health Perspectives, 2020):
Read-outs that look alike come from different tables or passages of the source.

Test system: iCell cardiomyocytes (human iPSC-derived cardiomyocytes)
Experiment: Intracellular Ca2+ flux / beating parameters in iCell cardiomyocytes (FLIPR tetra), 90 min or 24 h
Format: cell-based
Conditions: Homo sapiens, Cardiomyocyte, 0.00 µM = 100.00; for activity at 0.1 µM: 0.10 µM
Experimental: Details on cardiomyocyte cell culture are described in detail elsewhere ([Grimm et al. 2015b]; [Sirenko et al. 2013a]). Briefly, tissue-culture treated 384 well plates were gelatinized with 25μL per well of 0.1% (w/v) gelatin in water for 2 h at 37°C and 5% CO2 . Individual vials of cells were thawed for 4 min in a water bath maintained at 37°C. Thawed cells were resuspended in 10ml plating medium containing 1:500 (vol/vol) penicillin/streptomycin solution at room temperature (RT). Live cell counts for each cell suspension were determined by trypan blue staining and cells were further diluted to provide final cell densities of 2×10^5 viable cells/ml. Thus, 5,000 cells suspended in 25μL media were transferred per well after the gelatin solution had been discarded. Cell culture plates were rested for 30 min at RT before they were incubated for 48 h at 37°C and 5% CO2 . Then, a media exchange with 30μL of fresh maintenance medium containing 1:500 (vol/vol) penicillin/streptomycin solution was performed, and cell media were subsequently changed every 48 h for 12 d. On the experiment day, the medium was completely exchanged with either 25μL (for Ca^2+ flux assay) or 40μL (for imaging) of fresh medium.
Responses of iCell®-cardiomyocytes to drugs and chemicals were evaluated using intracellular Ca^2+ flux measurements ([Grimm et al. 2015b]; [Sirenko et al. 2013b]). For experiments, 20 mM stock solutions of PCBs and PCB metabolites were prepared in DMSO ( 200× ). Chemical working solutions ( 5× ) were prepared using cardiomyocyte maintenance medium and contained 2.5% (vol/vol) DMSO. These chemical master plates were prepared to include all chemicals in concentration–response (0.05, 0.5, 5, 50, and 500μM ). Negative controls included media-only and vehicle control (i.e., 0.5% vol/vol DMSO in cell culture media) wells. Positive assay controls were consistent with previously published reports ([Grimm et al. 2018]) and included TAB ( 50μM ) as a cytotoxic control, and isoproterenol ( 0.1–10μM ), propranolol ( 0.1–5 μM ), cisapride ( 0.01–1μM ), and doxorubicin ( 0.1–5μM ) as chemicals associated with specific effects on beating and ion flux. Each test chemical was screened in triplicate for each concentration.
Experiments started with the addition of 25μL of prewarmed 2× concentrated calcium dye reagent to sample wells containing 25μL maintenance media. Microplates were then acclimated for 2 h at 37°C. Following equilibration, cardiomyocyte sample wells were treated simultaneously by the addition of 12.5μL of prewarmed 5× chemical solution to iCell®-cardiomyocytes using the automated liquid handler in the FLIPR tetra (Molecular Devices). Treated cell cultures were incubated for either 90 min or 24 h. After the conclusion of the treatment period, the Ca^2+ flux was measured for 100 s at a frequency of 8 Hz using the integrated fluorescence plate reader in the FLIPR tetra (Molecular Devices) using an emission wavelength range of λemission=515–575 nm ( λexcitation=470–495 nm ). Additional instrument settings included exposure time per read of 0.05s, a gain of 2000, an excitation intensity of 30%, and an internal temperature of 37°C.
Ca^2+ flux data were processed in R studio (version 1.0.136, with R version 3.3.2; R Development Core Team) as described elsewhere ([Blanchette et al. 2019]; [Burnett et al. 2019]). Calculated quantitative metrics included the means and coefficients of variation (CV) of the peak height, which can be indicative of cytotoxicity, inhibition, or stimulation of beating. Means of peak frequency, an indicator of positive or negative […], and CV of peak spacing, an indicator of irregular beating, were also derived from Ca^2+ flux traces. Finally, the mean ratio of the decay over rise time was calculated. Increases in the decay/rise time ratio are reflective of delayed repolarization and are a measure for QT prolongation. […]

[1] = 1.5 h, 90min, read-out: cm.amp.avg.90min
[2] = 1.5 h, 90min, read-out: cm.amp.cv.90min
[3] = 1.5 h, 90min, read-out: cm.bpm.90min
[4] = 1.5 h, 90min, read-out: cm.decay.rise.90min
[5] = 1.5 h, 90min, read-out: cm.spacing.cv.90min
[6] = 24 h, 24hrs, read-out: cm.amp.avg.24hrs
[7] = 24 h, 24hrs, read-out: cm.amp.cv.24hrs
[8] = 24 h, 24hrs, read-out: cm.bpm.24hrs
[9] = 24 h, 24hrs, read-out: cm.decay.rise.24hrs
[10] = 24 h, 24hrs, read-out: cm.spacing.cv.24hrs

Clc1ccc(Cl)c(-c2c(Cl)ccc(Cl)c2Cl)c1 [PCB95]
activity at 0.01 µM [1]: 91.5% | activity at 0.01 µM [2]: 105% | activity at 0.01 µM [3]: 99.1% | activity at 0.01 µM [4]: 101% | activity at 0.01 µM [5]: 118% | activity at 0.1 µM [1]: 99.9% | activity at 0.1 µM [2]: 86.3% | activity at 0.1 µM [3]: 96.5% | activity at 0.1 µM [4]: 103% | activity at 0.1 µM [5]: 104% | activity at 1 µM [1]: 84.6% | activity at 1 µM [2]: 116% | activity at 1 µM [3]: 85.3% | activity at 1 µM [4]: 109% | activity at 1 µM [5]: 92% | activity at 10 µM [1]: 101% | activity at 10 µM [2]: 120% | activity at 10 µM [3]: 86.5% | activity at 10 µM [4]: 120% | activity at 10 µM [5]: 120% | activity at 100 µM [1]: 9.49% | activity at 100 µM [2]: 441% | activity at 100 µM [3]: 0% | activity at 100 µM [4]: 36.2% | activity at 100 µM [5]: 78.1% | activity at 0.01 µM [6]: 115% | activity at 0.01 µM [7]: 139% | activity at 0.01 µM [8]: 110% | activity at 0.01 µM [9]: 92.5% | activity at 0.01 µM [10]: 142% | activity at 0.1 µM [6]: 181% | activity at 0.1 µM [7]: 73.7% | activity at 0.1 µM [8]: 113% | activity at 0.1 µM [9]: 99.1% | activity at 0.1 µM [10]: 137% | activity at 1 µM [6]: 76.5% | activity at 1 µM [7]: 36.8% | activity at 1 µM [8]: 43.9% | activity at 1 µM [9]: 54.1% | activity at 1 µM [10]: 61.3% | activity at 10 µM [6]: 144% | activity at 10 µM [7]: 77.4% | activity at 10 µM [8]: 79.2% | activity at 10 µM [9]: 109% | activity at 10 µM [10]: 127% | activity at 100 µM [6]: 0% | activity at 100 µM [7]: 0% | activity at 100 µM [8]: 0% | activity at 100 µM [9]: 0% | activity at 100 µM [10]: 0%
